According to ChEMBL document CHEMBL5528009, “Benzothiozinone derivatives with anti-tubercular Activity-Further side chain investigation” (Eur J Med Chem, 2024):

Legend:
[1] = test system: Mycobacterium tuberculosis; test: Antitubercular activity against multidrug-resistant Mycobacterium tuberculosis clinical isolate 16,121; type: functional
[2] = test system: Mycobacterium tuberculosis; test: Antitubercular activity against multidrug-resistant Mycobacterium tuberculosis clinical isolate 16,030; type: functional

Structure (SMILES)	MIC [1] [µg/mL]	MIC [2] [µg/mL]
CO[C@H]1/C=C/O[C@@]2(C)Oc3c(C)c(O)c4c(O)c(c(/C=N/N5CCN(C)CC5)c(O)c4c3C2=O)NC(=O)/C(C)=C\C=C\[C@H](C)[C@H](O)[C@@H](C)[C@@H](O)[C@@H](C)[C@H](OC(C)=O)[C@@H]1C [RIFAMPIN]	> 10	> 10
CN(CC#CC1CCCCC1)c1nc(=O)c2cc(C(F)(F)F)cc([N+](=O)[O-])c2s1	< 0.016	< 0.016
NNC(=O)c1ccncc1 [ISONIAZID]	> 10	> 10
CN(CC#Cc1ccccc1)c1nc(=O)c2cc(C(F)(F)F)cc([N+](=O)[O-])c2s1	< 0.016	< 0.016
CN(CC#Cc1cscn1)c1nc(=O)c2cc(C(F)(F)F)cc([N+](=O)[O-])c2s1	< 0.016	< 0.016
